# Assay results taken from paper PMC10581193 (Microbiology Spectrum, 2023).
# Read-outs that look alike come from different tables or passages of the source.
# Experiments:
# [1] = target: DprE1 (Mycobacterium tuberculosis, UniProt P9WJF1, Y314H); parameters: species or system M. tuberculosis H37Ra
# [2] = test system: Y48; type: cell-based, M. tuberculosis
# [3] = test system: Y198; type: cell-based, M. tuberculosis
# [4] = test system: Y17; type: cell-based, M. tuberculosis
Structure (SMILES),Drug resistance of clinical isolate ([2]; strain Y48),Drug resistance of clinical isolate ([3]; strain Y198),further results
"Cc1nc(C)c(CN2CCOc3c(C(=O)NCC(F)(F)F)cc(C4CC4)cc32)nc1C [B18, 6-cyclopropyl-N-(2,2,2-trifluoroethyl)-4-((3,5,6-trimethylpyrazin-2-yl)methyl)-3,4-dihydro-2H-benzo[b][1,4]oxazine-8-carboxamide]",–,–,Amino-acid substitution [1]: Tyr→His
"COc1ncnc(Cn2cc(C(=O)NCCO)c3ncc(C)cc32)c1C [TBA-7371, reference compound]",–,–,Amino-acid substitution [1]: Tyr→His
"Nc1ccc(C(=O)O)c(O)c1 [PA, p-aminosalicylic acid]",S,R,–
"CO[C@H]1/C=C/O[C@@]2(C)Oc3c(C)c(O)c4c(O)c(c(/C=N/N5CCN(C)CC5)c(O)c4c3C2=O)NC(=O)/C(C)=C\C=C\[C@H](C)[C@H](O)[C@@H](C)[C@@H](O)[C@@H](C)[C@H](OC(C)=O)[C@@H]1C [RMP, rifampicin]",–,–,Drug resistance of clinical isolate [2]: R; Drug resistance of clinical isolate [3]: R; Drug resistance of clinical isolate [4]: R
"NC(=O)c1cnccn1 [PZA, pyrazinamide]",–,R,–
"[H]/N=C(/N)N[C@H]1[C@H](O)[C@@H](O)[C@H](O[C@@H]2O[C@@H](C)[C@](O)(C=O)[C@H]2O[C@@H]2O[C@@H](CO)[C@H](O)[C@@H](O)[C@@H]2NC)[C@@H](N/C(N)=N\[H])[C@@H]1O [SM, streptomycin]",–,R,–
"CO[C@H]1/C=C/O[C@@]2(C)Oc3c(C)c(O)c4c(c3C2=O)C2=NC3(CCN(CC(C)C)CC3)NC2=C(NC(=O)/C(C)=C\C=C\[C@H](C)[C@H](O)[C@@H](C)[C@@H](O)[C@@H](C)[C@H](OC(C)=O)[C@@H]1C)C4=O [RFB, rifabutin]",–,R,–
"NNC(=O)c1ccncc1 [INH, isoniazid]",R,R,Drug resistance of clinical isolate ([4]; strain Y17): R
"CC[C@@H](CO)NCCN[C@@H](CC)CO [EMB, ethambutol]",R,R,–
"CO[C@H]1/C=C/O[C@@]2(C)Oc3c(C)c(O)c4c(O)c(c(/C=N/N5CCN(C6CCCC6)CC5)c(O)c4c3C2=O)NC(=O)/C(C)=C\C=C\[C@H](C)[C@H](O)[C@@H](C)[C@@H](O)[C@@H](C)[C@H](OC(C)=O)[C@@H]1C [RFT, rifapentine]",–,R,–
